Laboratory results published in patent US11278513B2, “Diethylamino compounds for use as local anesthetics” (Zhejiang Yuejia Pharmaceuticals Co., Ltd, priority 2017, dated 2022).
pIC50: −log10 of the molar value. “And” between values parts separate entries of the source, which are not always exact repeats. Identical values can stand only once. Like-named read-outs stand apart in the source and are kept apart here.

Experiments:
[1] = test system: corneal reflex in rabbits; assay: Anesthetic effect on the corneal surface of New Zealand rabbits (corneal reflex inhibition, CRI); format: in vivo, New Zealand white rabbits
Description: New Zealand white rabbits were weighed. […] A single administration of 3 mg/animal (100 μL) was performed on the surface of the eyeball, and the drug concentration was 3% (m/V) in each case (wherein a Tris solution was added to aspirin to facilitate dissolution). Each group included 12 rabbits. […] An equal volume of normal saline was dropped onto the right eyeball as the self-negative control. […] After 30 minutes of administration, it was tested every 15 minutes. After the corneal reflex returned to the pre-dose level, the test was stopped. By comparing the corneal reflex on the administration side and the self-negative control side, the effect of the compound on the corneal reflex after administration was judged. Corneal reflex inhibition (CRI) was used to evaluate the effect of drugs on corneal reflex. CRI was calculated as follows: […]

Nav1.7 [2] = target: T1, Nav1.7 (Homo sapiens, UniProt Q15858); assay: Inhibition of Nav1.7 channel current in CHO cells stably expressing Nav1.7; format: cell-based; settings: CHO cells stably expressing Nav1.7, channel current
T1 construct: expressed in transfected cells
T1 sequence (Q15858 whole entry): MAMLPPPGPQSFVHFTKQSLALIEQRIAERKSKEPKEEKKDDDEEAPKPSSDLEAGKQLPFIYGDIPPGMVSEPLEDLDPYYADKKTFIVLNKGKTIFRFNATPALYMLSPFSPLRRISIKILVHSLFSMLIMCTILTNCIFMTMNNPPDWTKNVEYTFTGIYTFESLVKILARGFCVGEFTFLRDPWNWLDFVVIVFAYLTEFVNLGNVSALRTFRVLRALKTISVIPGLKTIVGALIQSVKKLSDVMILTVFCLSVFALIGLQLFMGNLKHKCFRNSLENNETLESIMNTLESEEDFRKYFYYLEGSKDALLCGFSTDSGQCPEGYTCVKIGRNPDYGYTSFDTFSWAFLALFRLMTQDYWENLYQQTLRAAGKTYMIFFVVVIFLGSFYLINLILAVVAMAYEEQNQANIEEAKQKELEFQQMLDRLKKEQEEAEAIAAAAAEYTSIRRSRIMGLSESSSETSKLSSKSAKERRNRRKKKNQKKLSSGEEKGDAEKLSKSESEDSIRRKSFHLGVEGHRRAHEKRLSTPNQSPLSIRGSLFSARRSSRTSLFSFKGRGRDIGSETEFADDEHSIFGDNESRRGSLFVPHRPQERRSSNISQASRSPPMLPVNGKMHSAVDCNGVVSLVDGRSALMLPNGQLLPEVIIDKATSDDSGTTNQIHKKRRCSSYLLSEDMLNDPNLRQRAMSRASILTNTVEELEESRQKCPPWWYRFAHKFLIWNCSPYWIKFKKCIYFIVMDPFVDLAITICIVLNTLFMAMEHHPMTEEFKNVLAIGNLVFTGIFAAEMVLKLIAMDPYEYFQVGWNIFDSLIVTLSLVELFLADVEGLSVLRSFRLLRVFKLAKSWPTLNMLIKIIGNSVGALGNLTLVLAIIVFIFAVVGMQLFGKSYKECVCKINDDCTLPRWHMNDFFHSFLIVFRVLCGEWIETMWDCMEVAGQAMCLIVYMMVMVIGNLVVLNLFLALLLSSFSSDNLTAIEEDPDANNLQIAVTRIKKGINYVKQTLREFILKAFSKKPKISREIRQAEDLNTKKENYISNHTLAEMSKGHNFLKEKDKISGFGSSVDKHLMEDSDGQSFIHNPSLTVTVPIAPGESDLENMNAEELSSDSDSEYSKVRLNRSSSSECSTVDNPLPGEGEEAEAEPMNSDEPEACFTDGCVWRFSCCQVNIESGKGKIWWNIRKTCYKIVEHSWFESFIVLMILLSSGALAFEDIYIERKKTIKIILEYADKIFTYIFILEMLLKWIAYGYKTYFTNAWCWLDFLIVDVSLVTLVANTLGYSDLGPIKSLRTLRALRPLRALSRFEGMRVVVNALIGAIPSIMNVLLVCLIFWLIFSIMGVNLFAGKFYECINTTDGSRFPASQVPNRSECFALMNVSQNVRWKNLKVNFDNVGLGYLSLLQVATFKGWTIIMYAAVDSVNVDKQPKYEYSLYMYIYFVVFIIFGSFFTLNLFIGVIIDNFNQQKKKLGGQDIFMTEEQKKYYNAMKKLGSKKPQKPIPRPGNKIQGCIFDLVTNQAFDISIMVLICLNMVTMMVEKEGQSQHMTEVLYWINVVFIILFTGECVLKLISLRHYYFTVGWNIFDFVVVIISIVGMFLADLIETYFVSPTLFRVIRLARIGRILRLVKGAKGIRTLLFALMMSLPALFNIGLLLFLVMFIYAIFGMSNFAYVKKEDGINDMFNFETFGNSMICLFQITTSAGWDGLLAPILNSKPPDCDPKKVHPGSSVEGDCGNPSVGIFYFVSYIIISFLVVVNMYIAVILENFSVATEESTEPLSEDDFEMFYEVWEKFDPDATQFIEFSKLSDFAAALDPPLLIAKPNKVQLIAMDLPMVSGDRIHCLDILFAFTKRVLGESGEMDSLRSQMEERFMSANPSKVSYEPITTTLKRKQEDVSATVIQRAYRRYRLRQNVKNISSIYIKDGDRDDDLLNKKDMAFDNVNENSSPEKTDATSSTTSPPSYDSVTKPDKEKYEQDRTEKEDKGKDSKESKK

Nav1.8 [3] = target: T2, Nav1.8 (Homo sapiens, UniProt Q9Y5Y9); assay: Inhibition of Nav1.8 channel current in HEK cells stably expressing Nav1.8; format: cell-based; settings: HEK cells stably expressing Nav1.8, channel current
T2 construct: expressed in transfected cells
T2 sequence (Q9Y5Y9 whole entry): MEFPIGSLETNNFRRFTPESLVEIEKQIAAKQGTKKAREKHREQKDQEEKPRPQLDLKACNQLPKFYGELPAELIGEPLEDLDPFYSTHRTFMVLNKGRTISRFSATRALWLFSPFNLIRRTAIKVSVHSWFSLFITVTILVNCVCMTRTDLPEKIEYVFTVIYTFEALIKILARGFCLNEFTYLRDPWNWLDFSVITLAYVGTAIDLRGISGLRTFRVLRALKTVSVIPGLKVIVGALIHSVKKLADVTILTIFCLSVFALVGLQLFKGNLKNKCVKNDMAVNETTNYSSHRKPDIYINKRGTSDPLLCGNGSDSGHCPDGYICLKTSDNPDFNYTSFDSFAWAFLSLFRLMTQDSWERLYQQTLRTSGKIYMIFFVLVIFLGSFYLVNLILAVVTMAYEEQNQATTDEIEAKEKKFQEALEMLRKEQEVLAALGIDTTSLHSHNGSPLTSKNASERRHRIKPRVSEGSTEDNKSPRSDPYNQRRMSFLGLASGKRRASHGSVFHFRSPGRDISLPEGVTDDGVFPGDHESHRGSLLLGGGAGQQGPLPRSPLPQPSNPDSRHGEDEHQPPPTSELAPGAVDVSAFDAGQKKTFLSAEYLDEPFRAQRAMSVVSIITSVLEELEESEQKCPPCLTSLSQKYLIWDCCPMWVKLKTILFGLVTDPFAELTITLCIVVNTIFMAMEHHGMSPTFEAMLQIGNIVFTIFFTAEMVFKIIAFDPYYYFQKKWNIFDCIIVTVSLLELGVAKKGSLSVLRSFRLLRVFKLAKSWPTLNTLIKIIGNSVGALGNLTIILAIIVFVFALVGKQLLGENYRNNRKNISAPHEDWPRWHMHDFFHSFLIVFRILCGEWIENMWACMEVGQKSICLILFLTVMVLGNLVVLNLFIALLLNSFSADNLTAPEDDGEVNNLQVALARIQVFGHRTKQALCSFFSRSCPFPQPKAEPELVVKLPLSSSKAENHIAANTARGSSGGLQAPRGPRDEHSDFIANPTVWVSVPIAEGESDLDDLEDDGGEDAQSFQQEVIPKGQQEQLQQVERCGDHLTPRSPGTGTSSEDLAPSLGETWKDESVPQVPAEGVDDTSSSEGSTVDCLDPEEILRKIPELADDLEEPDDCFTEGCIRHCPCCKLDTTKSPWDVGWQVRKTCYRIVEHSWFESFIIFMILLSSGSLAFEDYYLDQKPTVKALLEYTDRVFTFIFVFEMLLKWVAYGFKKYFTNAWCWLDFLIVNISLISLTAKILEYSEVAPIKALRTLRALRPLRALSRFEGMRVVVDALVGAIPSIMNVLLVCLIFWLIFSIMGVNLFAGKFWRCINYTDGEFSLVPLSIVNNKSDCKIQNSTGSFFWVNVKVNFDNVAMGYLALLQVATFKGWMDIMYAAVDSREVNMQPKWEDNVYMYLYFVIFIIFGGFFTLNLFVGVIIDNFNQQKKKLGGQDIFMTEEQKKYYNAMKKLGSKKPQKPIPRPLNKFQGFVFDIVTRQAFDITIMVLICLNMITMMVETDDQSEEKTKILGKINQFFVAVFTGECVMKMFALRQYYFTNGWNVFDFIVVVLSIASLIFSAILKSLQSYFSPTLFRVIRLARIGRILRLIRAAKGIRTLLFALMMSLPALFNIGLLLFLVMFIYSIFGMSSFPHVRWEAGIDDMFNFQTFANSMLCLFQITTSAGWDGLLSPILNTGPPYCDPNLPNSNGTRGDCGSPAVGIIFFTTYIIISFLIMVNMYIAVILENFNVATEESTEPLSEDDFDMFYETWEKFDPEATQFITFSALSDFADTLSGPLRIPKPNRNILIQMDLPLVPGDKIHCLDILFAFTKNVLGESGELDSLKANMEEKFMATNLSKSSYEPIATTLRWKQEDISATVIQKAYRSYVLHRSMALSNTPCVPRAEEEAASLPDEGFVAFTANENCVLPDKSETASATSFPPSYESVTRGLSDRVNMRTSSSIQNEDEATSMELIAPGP

[4] = test system: rat dorsal root ganglion (DRG) neurons; assay: Patch clamp inhibition of action potential of acutely isolated rat DRG neurons; format: cell-based; settings: DRG neuron
Excerpt: In addition, the inventor used acutely isolated rat dorsal root ganglion (DRG) neurons as the experimental object, using patch clamp technology to investigate the inhibition effect of the compound represented by Formula 1 of the present invention on the neuronal excitability of the dorsal root ganglion.

[5] = Physical and chemical properties (repose angle, solubility, acidity, dissociation constant); format: physicochemical
[6] = Stability of aqueous solution at 2-8° C. (HPLC); format: physicochemical; settings: for Main Drug, %: aqueous solution 5 g in 50 mL sterile water; for Main Drug, % / Salicylic acid, % (impurity) / Salicylic acid-(2-diethylaminoethyl ester) hydrochloride, % (impurity) / Acetylsalicylic acid, % (impurity): 2-8° C.; for Salicylic acid, % (impurity) / Salicylic acid-(2-diethylaminoethyl ester) hydrochloride, % (impurity) / Acetylsalicylic acid, % (impurity): aqueous solution
Nav1.7 [7] = target: T1, Nav1.7; settings: reported by a literature; cited from earlier work
Nav1.8 [8] = target: T2, Nav1.8; settings: reported by a literature; cited from earlier work
[9] = 3% (m/V), 100 μL on left eyeball, 0 min, mean ± SD
[10] = 3% (m/V), 100 μL on left eyeball, 10 min after administration, mean ± SD
[11] = 3% (m/V), 100 μL on left eyeball, 15 min after administration, mean ± SD
[12] = 3% (m/V), 100 μL on left eyeball, 20 min after administration, mean ± SD
[13] = 3% (m/V), 100 μL on left eyeball, 25 min after administration, mean ± SD
[14] = 3% (m/V), 100 μL on left eyeball, 30 min after administration, mean ± SD
[15] = 3% (m/V), 100 μL on left eyeball, 45 min after administration, mean ± SD
[16] = 3% (m/V), 100 μL on left eyeball, 60 min after administration, mean ± SD
[17] = ophthalmic administration, 3% (m/V), rabbits
[18] = 3% (m/V), 100 μL on left eyeball, 5 min after administration, mean ± SD

## O=C([O-])c1ccccc1O.[Na+] [Sodium salicylate, sodium salicylate]
[1]; rabbit, in vivo
  CRI (%): 0.0±0.0%
  local anesthetic effect (in words): no local anesthetic effect at all

## CCN(CC)CCOC(=O)c1ccccc1OC(C)=O.Cl [2-(diethylamino)-ethyl-2-acetoxybenzoate hydrochloride]
Nav1.7 [2]
  pIC50: 4.75
Nav1.8 [3]
  pIC50: 4.13
[4]
  pIC50: 4.46
[5]
  Dissociation constant: 8.82
  Repose angle: 42°
[5]; 2% aqueous solution at 25 ± 0.5° C.
  Acidity: pH value of the 2% aqueous solution: product at 25 ± 0.5 °C is 4.0-6.0
[5]; acetone
  Solubility in acetone: slightly soluble
[5]; ether
  Solubility in ether: insoluble
[5]; ethyl acetate
  Solubility in ethyl acetate: insoluble
[5]; water
  Solubility in water: extremely soluble
[6]; month 0
  Main Drug, %: 99.48%
  Salicylic acid, % (impurity): 0.0028%
  Salicylic acid-(2-diethylaminoethyl ester) hydrochloride, % (impurity): 0.51%
[6]; month 0.5
  Main Drug, %: 99.32%
  Salicylic acid, % (impurity): 0.0035%
  Salicylic acid-(2-diethylaminoethyl ester) hydrochloride, % (impurity): 0.67%
[6]; month 1
  Main Drug, %: 97.59%
  Acetylsalicylic acid, % (impurity): 0.018%
  Salicylic acid, % (impurity): 0.0044%
  Salicylic acid-(2-diethylaminoethyl ester) hydrochloride, % (impurity): 2.38%
[6]; month 2
  Main Drug, %: 94.86%
  Acetylsalicylic acid, % (impurity): 0.033%
  Salicylic acid, % (impurity): 0.012%
  Salicylic acid-(2-diethylaminoethyl ester) hydrochloride, % (impurity): 5.09%
[6]; month 3, hydrochloride
  Main Drug, %: 86% and 86.55%
[6]; month 3
  Acetylsalicylic acid, % (impurity): 0.042%
  Salicylic acid, % (impurity): 0.049%
[6]; solution state
  stability in solution (in words): did not meet the general requirements for chemical drug stability
[1]; [9]
  CRI (%): 0.0 ± 0.0%
[1]; 3% (m/V), 100 μL on left eyeball, 5 min after administration; mean ± SD; hydrochloride)
  CRI (%): 99.1 ± 2.0%
[1]; [10]
  CRI (%): 97.2 ± 2.9%
[1]; [11]
  CRI (%): 96.7 ± 6.5%
[1]; [12]
  CRI (%): 86.7 ± 9.8%
[1]; [13]
  CRI (%): 77.5 ± 2.9%
[1]; [14]
  CRI (%): 57.5 ± 12.2%
[1]; [15]
  CRI (%): 12.2 ± 12.4%
[1]; [16]
  CRI (%): 0.0 ± 0.0%
[1]; [17]
  local anesthetic effect (in words): had a local anesthesia effect for ophthalmic administration, with quick onset

## CCN(CC)CC(=O)Nc1c(C)cccc1C [Lidocaine, lidocaine]
[4]
  pIC50: 4.43
[1]; [9]
  CRI (%): 0.0 ± 0.0%
[1]; [18]
  CRI (%): 98.3 ± 3.9%
[1]; [10]
  CRI (%): 95.0 ± 10.0%
[1]; [11]
  CRI (%): 91.7 ± 15.3%
[1]; [12]
  CRI (%): 86.7 ± 21.0%
[1]; [13]
  CRI (%): 82.5 ± 27.3%
[1]; [14]
  CRI (%): 70.0 ± 27.3%
[1]; [15]
  CRI (%): 32.5 ± 30.5%
[1]; [16]
  CRI (%): 0.0 ± 0.0%
Nav1.7 [7]
  pIC50: 3.35
Nav1.8 [8]
  pIC50: 3.98

## CC(=O)Oc1ccccc1C(=O)O [Aspirin, aspirin]
[1]; [9]
  CRI (%): 0.0 ± 0.0%
[1]; [18]
  CRI (%): 0.0 ± 0.0%
[1]; [10]
  CRI (%): 0.0 ± 0.0%
[1]; [11]
  CRI (%): 0.0 ± 0.0%
[1]; [12]
  CRI (%): 0.0 ± 0.0%
[1]; [13]
  CRI (%): 0.0 ± 0.0%
[1]; [14]
  CRI (%): 0.0 ± 0.0%
[1]; [15]
  CRI (%): 0.0 ± 0.0%
[1]; [16]
  CRI (%): 0.0 ± 0.0%
[1]; no time point stated
  CRI (%): 0.0±0.0%
[1]; [17]
  local anesthetic effect (in words): no local anesthetic effect at all
